One may read the IC50 as the concentration that gives 50% inhibition. High values mean lower potency, low ones higher potency.

The text below walks through data of patent publication US9732097B2, “Process for the synthesis of a phosphoinositide 3-kinase inhibitor” (Incyte Corporation, priority 2015, dated 2017).

One assay has as its target human JAK1 (Homo sapiens, UniProt P23458). The assay is described as follows: In vitro JAK kinase assay (Example D, HTRF), JAK1. The assay is classed as biochemical. The settings on record: 1 mM ATP. A general note: Time-resolved FRET reads energy transfer from a long-lived donor to a nearby acceptor.
For the next assay, the target named is human JAK2 (Homo sapiens (Human), UniProt O60674). Put plainly: In vitro JAK kinase assay (Example D, HTRF), JAK2. In kind it is biochemical. The settings on record: ratio of JAK2 to JAK1 IC50, 1 mM ATP.
Chain of human JAK2 (O60674 828-1132): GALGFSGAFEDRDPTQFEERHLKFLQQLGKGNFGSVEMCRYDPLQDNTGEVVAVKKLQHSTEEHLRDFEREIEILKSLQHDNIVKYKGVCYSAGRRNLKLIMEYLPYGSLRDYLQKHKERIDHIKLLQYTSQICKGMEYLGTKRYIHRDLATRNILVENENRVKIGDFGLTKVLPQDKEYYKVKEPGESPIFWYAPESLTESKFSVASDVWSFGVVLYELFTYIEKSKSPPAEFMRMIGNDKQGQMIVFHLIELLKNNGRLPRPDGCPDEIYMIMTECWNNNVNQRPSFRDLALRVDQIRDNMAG

With `N#CCC(C1CCN(c2cccc(Cl)n2)C1)n1cc(-c2ncnc3[nH]ccc23)cn1` (single isomer, unassigned) [compound 3, 3-[1-(6-chloropyridin-2-yl)pyrrolidin-3-yl]-3-[4-(7H-pyrrolo[2,3-d]pyrimidin-4-yl)-1H-pyrazol-1-yl]propanenitrile], the IC50 against human JAK1 was under 10 nM. Moreover, the JAK2/JAK1 on human JAK2 is on record as over 10.

On to `C[C@@H](O)c1nc2cnc3ccsc3c2n1[C@H]1CC[C@H](CC#N)OC1` [compound 1, ((2R,5S)-5-{2-[(1R)-1-hydroxyethyl]-1H-imidazo[4,5-d]thieno[3,2-b]pyridin-1-yl}tetrahydro-2H-pyran-2-yl)acetonitrile], for which the IC50 on human JAK1 is under 100 nM. Further, at human JAK2, the JAK2/JAK1 was over 10.

As to `N#CCC(C1CCN(c2nc3cccnc3o2)C1)n1cc(-c2ncnc3[nH]ccc23)cn1` (stereo not drawn) [compound 4, 3-(1-[1,3]oxazolo[5,4-b]pyridin-2-ylpyrrolidin-3-yl)-3-[4-(7H-pyrrolo[2,3-d]pyrimidin-4-yl)-1H-pyrazol-1-yl]propanenitrile], on human JAK1, the IC50 is under 10 nM. For the same compound, at human JAK2, the JAK2/JAK1 is listed as over 10.

Regarding `N#CCC(CN1CCN(C(=O)c2ccc(C#N)cc2F)CC1)n1cc(-c2ncnc3[nH]ccc23)cn1` (stereo not drawn) [compound 5, 4-[(4-{3-cyano-2-[4-(7H-pyrrolo[2,3-d]pyrimidin-4-yl)-1H-pyrazol-1-yl]propyl}piperazin-1-yl)carbonyl]-3-fluorobenzonitrile], the IC50 against human JAK1 was under 10 nM. The JAK2/JAK1 on human JAK2 is reported as over 10.

With `N#CCC(CN1CCN(C(=O)c2ccc(C#N)cc2F)CC1)n1ccc(-c2ncnc3[nH]ccc23)c1` (stereo not drawn) [compound 6, 4-[(4-{3-cyano-2-[3-(7H-pyrrolo[2,3-d]pyrimidin-4-yl)-1H-pyrrol-1-yl]propyl}piperazin-1-yl)carbonyl]-3-fluorobenzonitrile], the IC50 against human JAK1 was under 10 nM. Further, the JAK2/JAK1 at human JAK2 is over 10.

At human JAK1, `N#CCC1(n2cc(-c3ncnc4[nH]ccc34)cn2)CN(C2CCN(C(=O)c3ccnc(C(F)(F)F)c3F)CC2)C1` [compound 7, {1-{1-[3-Fluoro-2-(trifluoromethyl)isonico-tinoyl]piperidin-4-yl}-3-[4-(7H-pyrrolo[2,3-d]pyrimidin-4-yl)-1H-pyrazol-1-yl]azetidin-3-yl}acetonitrile] gave an IC50 of under 10 nM. Besides, on human JAK2, the JAK2/JAK1 is reported as over 10.

Take `N#CCC1(n2cc(-c3ncnc4[nH]ccc34)cn2)CN(C2CCN(C(=O)Nc3ccc(F)cc3C(F)(F)F)CC2)C1` [compound 8, 4-{3-(Cyanomethyl)-3-[4-(7H-pyrrolo[2,3-d]pyrimidin-4-yl)-1H-pyrazol-1-yl]azetidin-1-yl}-N-[4-fluoro-2-(trifluoromethyl)phenyl] piperidine-1-carboxamide]: the IC50 against human JAK1 was under 10 nM. Besides, the JAK2/JAK1 at human JAK2 is on record as over 10.

Take `N#CCC1(n2cc(-c3ncnc4[nH]ccc34)cn2)CN(C2CCN(C(=O)c3ccnc(C(F)(F)F)n3)CC2)C1` [compound 9, [3-[4-(7H-pyrrolo[2,3-d]pyrimidin-4-yl)-1H-pyrazol-1-yl]-1-(1-{[2-(trifluoromethyl)pyrim-idin-4-yl]carbonyl}piperidin-4-yl)azetidin-3-yl]acetonitrile]: the IC50 on human JAK1 is under 10 nM. Moreover, the JAK2/JAK1 at human JAK2 was over 10.

As to `N#CC[C@]1(n2cc(-c3ncnc4[nH]ccc34)cn2)C[C@H](N2CCN(C(=O)c3ccnc(C(F)(F)F)n3)CC2)C1` [compound 10, [trans-1-[4-(7H-pyrrolo[2,3-d]pyrimidin-4-yl)-1H-pyrazol-1-yl]-3-(4-{[2-(trifluoromethyl)pyrim-idin-4-yl]carbonyl}piperazin-1-yl)cyclobutyl]acetonitrile], the concentration for half-maximal inhibition (IC50) at human JAK1 was under 10 nM. Besides, the JAK2/JAK1 on human JAK2 is reported as over 10.

Turning to `N#CC[C@]1(n2cc(-c3ncnc4[nH]ccc34)cn2)C[C@H](N2CCC(Oc3cc(CN4CC(O)C4)cc(C(F)(F)F)n3)CC2)C1` [compound 11, {trans-3-(4-{[4-[(3-hydroxyazetidin-1-yl)methyl]-6-(trifluoromethyl)pyridin-2-yl]oxy}piperidin-1-yl)-1-[4-(7H-pyrrolo[2,3-d]pyrimidin-4-yl)-1H-pyrazol-1-yl]cyclobutyl}acetonitrile], the IC50 against human JAK1 was under 10 nM. Further, the JAK2/JAK1 on human JAK2 is over 10.

Consider `N#CC[C@]1(n2cc(-c3ncnc4[nH]ccc34)cn2)C[C@H](N2CCC(Oc3cc(CN4CCC[C@H]4CO)cc(C(F)(F)F)n3)CC2)C1` [compound 12, {trans-3-(4-{[4-{[(2S)-2-(hydroxymethyl)pyrrolidin-1-yl]methyl}-6-(trifluoromethyl)pyridin-2-yl]oxy}piperidin-1-yl)-1-[4-(7H-pyrrolo[2,3-d]pyrimidin-4-yl)-1H-pyrazol-1-yl]cyclobutyl}acetonitrile], for which the IC50 against human JAK1 is under 10 nM. The JAK2/JAK1 on human JAK2 is recorded as over 10.

Turning to `N#CC[C@]1(n2cc(-c3ncnc4[nH]ccc34)cn2)C[C@H](N2CCC(Oc3cc(CN4CCC[C@@H]4CO)cc(C(F)(F)F)n3)CC2)C1` [compound 13, {trans-3-(4-{[4-{[(2R)-2-(hydroxymethyl)pyrrolidin-1-yl]methyl}-6-(trifluoromethyl)pyridin-2-yl]oxy}piperidin-1-yl)-1-[4-(7H-pyrrolo[2,3-d]pyrimidin-4-yl)-1H-pyrazol-1-yl]cyclobutyl}acetonitrile], the IC50 at human JAK1 was under 10 nM. Moreover, the JAK2/JAK1 on human JAK2 is listed as over 10.

The compound `C[C@H](NC(=O)c1cc(F)c(N2CC(CC#N)(n3cc(-c4ncnc5[nH]ccc45)cn3)C2)cc1F)C(F)(F)F` [compound 16, 4-{3-(cyanomethyl)-3-[4-(7H-pyrrolo[2,3-d]pyrimidin-4-yl)-1H-pyrazol-1-yl]azetidin-1-yl}-2,5-difluoro-N-[(1S)-2,2,2-trifluoro-1-methylethyl]benzamide] showed an IC50 at human JAK1 of under 10 nM. Besides, the JAK2/JAK1 on human JAK2 is reported as over 10.

Compound `N#CCC1(n2cc(-c3ncnc4[nH]ccc34)cn2)CN([C@H]2CC[C@@H](Oc3cc(CCO)nc(C(F)(F)F)n3)CC2)C1` [compound 18, {1-(cis-4-{[6-(2-hydroxyethyl)-2-(trifluoromethyl)pyrimidin-4-yl]oxy}cyclohexyl)-3-[4-(7H-pyrrolo[2,3-d]pyrimidin-4-yl)-1H-pyrazol-1-yl]azetidin-3-yl}acetonitrile] registered an IC50 against human JAK1 of under 10 nM. Moreover, the JAK2/JAK1 at human JAK2 is reported as over 10.

The compound `CCNCc1cc(O[C@H]2CC[C@@H](N3CC(CC#N)(n4cc(-c5ncnc6[nH]ccc56)cn4)C3)CC2)nc(C(F)(F)F)c1` [compound 19, {1-(cis-4-{[4-[(ethylamino)methyl]-6-(trifluoromethyl)pyridin-2-yl]oxy}cyclohexyl)-3-[4-(7H-pyrrolo[2,3-d]pyrimidin-4-yl)-1H-pyrazol-1-yl]azetidin-3-yl]acetonitrile] displayed an IC50 at human JAK1 of under 10 nM. Also, at human JAK2, the JAK2/JAK1 is over 10.

Regarding `N#CCC1(n2cc(-c3ncnc4[nH]ccc34)cn2)CN([C@H]2CC[C@@H](Oc3cc(CN4CC[C@@H](O)C4)cc(C(F)(F)F)n3)CC2)C1` [compound 21, {1-(cis-4-{[4-{[(3R)-3-hydroxypyrrolidin-1-yl]methyl}-6-(trifluoromethyl)pyridin-2-yl]oxy}cyclohexyl)-3-[4-(7H-pyrrolo[2,3-d]pyrimidin-4-yl)-1H-pyrazol-1-yl]azetidin-3-yl}acetonitrile], at human JAK1, the IC50 was under 10 nM. For the same compound, on human JAK2, the JAK2/JAK1 is on record as over 10.

At human JAK1, `N#CCC1(n2cc(-c3ncnc4[nH]ccc34)cn2)CN([C@H]2CC[C@@H](Oc3cc(CN4CC[C@H](O)C4)cc(C(F)(F)F)n3)CC2)C1` [compound 22, {1-(cis-4-{[4-{[(3S)-3-hydroxypyrrolidin-1-yl]methyl}-6-(trifluoromethyl)pyridin-2-yl]oxy}cyclohexyl)-3-[4-(7H-pyrrolo[2,3-d]pyrimidin-4-yl)-1H-pyrazol-1-yl]azetidin-3-yl}acetonitrile] returned an IC50 of under 10 nM. Moreover, on human JAK2, the JAK2/JAK1 is over 10.

Consider `C[C@@H](CO)NCc1cc(OC2CCN([C@H]3C[C@](CC#N)(n4cc(-c5ncnc6[nH]ccc56)cn4)C3)CC2)nc(C(F)(F)F)c1` [compound 23, {trans-3-(4-{[4-({[(1S)-2-hydroxy-1-methylethyl]amino}methyl)-6-(trifluoromethyl)pyridin-2-yl]oxy}piperidin-1-yl)-1-[4-(7H-pyrrolo[2,3-d]pyrimidin-4-yl)-1H-pyrazol-1-yl]cyclobutyl}acetonitrile], for which the IC50 against human JAK1 is under 10 nM. For the same compound, at human JAK2, the JAK2/JAK1 is over 10.

On human JAK1, `C[C@@H](O)CNCc1cc(OC2CCN([C@H]3C[C@](CC#N)(n4cc(-c5ncnc6[nH]ccc56)cn4)C3)CC2)nc(C(F)(F)F)c1` [compound 24, {trans-3-(4-{[4-({[(2R)-2-hydroxypropyl]amino}methyl)-6-(trifluoromethyl)pyridin-2-yl]oxy}piperidin-1-yl)-1-[4-(7H-pyrrolo[2,3-d]pyrimidin-4-yl)-1H-pyrazol-1-yl]cyclobutyl}acetonitrile] had an IC50 of under 10 nM. In addition, on human JAK2, the JAK2/JAK1 is recorded as over 10.

In turn, `C[C@H](O)CNCc1cc(OC2CCN([C@H]3C[C@](CC#N)(n4cc(-c5ncnc6[nH]ccc56)cn4)C3)CC2)nc(C(F)(F)F)c1` [compound 25, {trans-3-(4-{[4-({[(2S)-2-hydroxypropyl]amino}methyl)-6-(trifluoromethyl)pyridin-2-yl]oxy}piperidin-1-yl)-1-[4-(7H-pyrrolo[2,3-d]pyrimidin-4-yl)-1H-pyrazol-1-yl]cyclobutyl}acetonitrile] came in with an IC50 at human JAK1 of under 10 nM. In addition, the JAK2/JAK1 at human JAK2 was over 10.

`N#CC[C@]1(n2cc(-c3ncnc4[nH]ccc34)cn2)C[C@H](N2CCC(Oc3cc(CCO)cc(C(F)(F)F)n3)CC2)C1` [compound 26, {trans-3-(4-{[4-(2-hydroxyethyl)-6-(trifluoromethyl)pyridin-2-yl]oxy}piperidin-1-yl)-1-[4-(7H-pyrrolo[2,3-d]pyrimidin-4-yl)-1H-pyrazol-1-yl]cyclobutyl}acetonitrile] yielded an IC50 against human JAK1 of under 10 nM. For the same compound, at human JAK2, the JAK2/JAK1 is on record as over 10.
